Laboratory results published in patent EP0603240B1, “SAFENING HERBICIDAL PYRAZOLYLSULFONYLUREAS” (priority 1991, dated 1993).

How the values were obtained:
Format in all cases: in vivo
[1] = test system: corn; test: Example 12, Procedure II: Herbicide No. 1 + acetochlor (No. 6) with thirteen antidotes
In short: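 Herbicide and antidote in acetone were mixed into silt loam used to cover the corn seed bed, alongside untreated and herbicide-only controls. After incorporation, an overhead irrigation equal to 0.6 cm rainfall was given, then sub-irrigation in a greenhouse. Injury was scored as percent; safening is the injury difference without versus with antidote.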

[2] = test system: corn; test: Example 3, Procedure I: antidotes against Herbicide No. 1
In short: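 Herbicide and antidote, each in acetone, mixed into a soil layer covering the seeded corn bed; untreated and herbicide-only controls run alongside. Greenhouse, sub-irrigated, barnyardgrass present; herbicide 4.48 down to 0.56 kg/ha. Percent injury scored; efficacy = injury without minus with antidote.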

[3] = test system: corn; test: Example 10, Procedure II: Herbicide No. 1 + propachlor (No. 5) with antidotes
Protocol: (§1) Containers were filled and compacted with a fumigated silt loam top soil to a depth of about 1.3 cm from the top of the container. A first container was designated as an untreated control, a second container was designated as a herbicide control, and a third container was designated as a herbicide + antidote test container. Each of the containers was seeded with a crop species. A measured amount of herbicide dispersed or dissolved in acetone was applied to a measured quantity of soil. To this same quantity of soil treated with herbicide, there was added a measured amount of antidote dispersed or dissolved in acetone. The quantity of soil treated with the herbicide and antidote was thoroughly mixed to incorporate the herbicide and antidote in the soil uniformly. The seed bed in the third container of soil was covered with the soil treated with the herbicide and antidote and the container was leveled. For each test series, the seed beds of the first and second containers were likewise covered by soil layers. the cover layer of the first container was not treated with herbicide or antidote.
(§2) The containers were then placed on a bench in a greenhouse and sub-irrigated as required for the duration of the test. […] Plant response is measured in terms of percent injury. Antidote efficacy is indicated as the difference in plant injury by the herbicide(s) without the antidote and with the antidote.
(§3) This procedure is the same as Procedure I, but modified in the manner that after incorporation of the chemicals (herbicide and antidote) the containers with the covered seedbed were treated with an initial overhead irrigation equivalent to 0.6 cm rainfall, then subsequently sub-irrigated as required on greenhouse benches.
In this test, the safening effect of various antidotes on the herbicidal combination of Herbicide No. 1 and another α-chloroacetanilide co-herbicide, propachlor, (Herbicide No. 5) was investigated. Propachlor is the active ingredient in the commercial herbicide RAMROD®. Procedure II was also used in this test as in the preceding example.

[4] = test system: corn; test: Example 5, Procedure I: Herbicide No. 1 + alachlor (No. 7) with Antidote Nos. 15 and 16
In short: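 Greenhouse pot test in silt loam; herbicide No. 1 plus alachlor co-herbicide and antidote, each applied in acetone, mixed into cover soil over seeded beds, sub-irrigated. Percent injury scored; antidote efficacy as injury difference without vs with antidote.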

[5] = test system: barnyardgrass (Echinochloa crusgalli); test: Example 9, Procedure II: Herbicide No. 1 + pretilachlor (No. 13) with antidotes
Protocol: as §1, §2, §3
(§4) In the series of greenhouse tests described below, for routine screening purposes the herbicide/antidote compositions were tested in crop/weed combinations involving corn as the crop and either or both of the weeds barnyardgrass (Echinochloa crusgalli), a monocotyledonous weed, and velvetleaf (Abutilon theophrasti), a dicotyledonous weed. In the tables below, these weeds are indicated by the symbols "BYG" and "VL", respectively.
(§5) In this example the safening effect on a composition comprising Herbicide No. 1 and another leading rice herbicide, i.e., Herbicide No. 13, was investigated using the same antidotes and test procedure described in the preceding example. Herbicide No. 13 is pretilachlor, active ingredient used in the commercial rice herbicides RIFIT®, SOFIT® and SOFIT® SUPER.

[6] = test system: velvetleaf (Abutilon theophrasti); test: as above
Protocol: as §1, §2, §3, §4, §5

[7] = test system: barnyardgrass (Echinochloa crusgalli); test: Example 4, Procedure I: Antidote Nos. 15 and 16 against Herbicide No. 1
Protocol: as §1, §2, §4
(§6) This example describes tests with Antidote Nos. 15 and 16 to safen Herbicide No. 1 according to Procedure I using corn and the weeds barnyardgrass and velvetleaf as the test plants.

[8] = test system: velvetleaf (Abutilon theophrasti); test: as above
Protocol: as §1, §2, §4, §6

[9] = test system: corn; test: Example 13, Procedure II: Herbicide No. 1 + acetochlor (No. 6) with dichloroacetamide antidotes
In short: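 Corn seeded in silt loam, covered with soil into which herbicide No. 1 plus acetochlor and dichloroacetamide antidote (acetone) were incorporated, velvetleaf present. Initial overhead irrigation equivalent to 0.6 cm rainfall, then greenhouse sub-irrigation. Percent injury scored; safening taken as injury difference without versus with antidote.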

[10] = test system: corn; test: Example 15, Procedure II: Herbicide No. 1 + butylate (No. 10) with antidotes
Protocol: as §1, §2, §3
This example describes experiments designed to investigate the antidotal efficacy of a plurality of antidotes against the herbicidal action of a combination of Herbicide No. 1 and butylate in corn and the prevalent weeds barnyardgrass and velvetleaf. The antidotes used in these experiments were Nos. 1-10, 12, 13 and 15.
The test procedure used in these experiments was that of Procedure II described above. The antidotes were applied to a soil cover layer by pipet after spraying the herbicides onto the soil, followed by incorporation and overhead irrigation.

[11] = Herb. No. 1 4.48 kg/ha + antidote 0.56 kg/ha
[12] = Herb. No. 1 4.48 kg/ha + antidote 2.24 kg/ha
[13] = Herbicide No.1 0.14 kg/ha + Herbicide No.13 2.24 kg/ha, antidote rate 2.24 kg/ha
[14] = Herbicide No.1 0.14 kg/ha + Herbicide No.13 2.24 kg/ha, antidote rate 8.96 kg/ha
[15] = Herbicide No.1 0.56 kg/ha + Herbicide No.13 2.24 kg/ha, antidote rate 2.24 kg/ha
[16] = Herbicide No.1 0.56 kg/ha + Herbicide No.13 2.24 kg/ha, antidote rate 8.96 kg/ha
[17] = Herb. No. 1 6.72 kg/ha + antidote 0.56 kg/ha
[18] = Herb. No. 1 6.72 kg/ha + antidote 2.24 kg/ha

## CC1(C)OC(c2ccco2)CN1C(=O)C(Cl)Cl (centres unmarked) [compound 15]
[1]; Herbicide No.1 0.14 kg/ha + Herbicide No.6 2.24 kg/ha, antidote rate 2.24 kg/ha
  % Injury Corn: 15%
[1]; Herbicide No.1 0.14 kg/ha + Herbicide No.6 2.24 kg/ha, antidote rate 8.96 kg/ha
  % Injury Corn: 10%
[1]; Herbicide No.1 0.56 kg/ha + Herbicide No.6 2.24 kg/ha, antidote rate 2.24 kg/ha
  % Injury Corn: 20%
[1]; Herbicide No.1 0.56 kg/ha + Herbicide No.6 2.24 kg/ha, antidote rate 8.96 kg/ha
  % Injury Corn: 5%
[2]; Herb. No. 1 0.56 kg/ha + antidote 0.56 kg/ha
  % Injury Corn: 0%
[2]; Herb. No. 1 0.56 kg/ha + antidote 2.24 kg/ha
  % Injury Corn: 0%
[2]; Herb. No. 1 0.56 kg/ha + antidote 8.96 kg/ha
  % Injury Corn: 0%
[2]; Herb. No. 1 1.12 kg/ha + antidote 0.56 kg/ha
  % Injury Corn: 0%
[2]; Herb. No. 1 1.12 kg/ha + antidote 2.24 kg/ha
  % Injury Corn: 0%
[2]; Herb. No. 1 1.12 kg/ha + antidote 8.96 kg/ha
  % Injury Corn: 0%
[2]; Herb. No. 1 2.24 kg/ha + antidote 0.56 kg/ha
  % Injury Corn: 15%
[2]; Herb. No. 1 2.24 kg/ha + antidote 2.24 kg/ha
  % Injury Corn: 0%
[2]; Herb. No. 1 2.24 kg/ha + antidote 8.96 kg/ha
  % Injury Corn: 0%
[2]; [11]
  % Injury Corn: 0%
[2]; [12]
  % Injury Corn: 5%
[2]; Herb. No. 1 4.48 kg/ha + antidote 8.96 kg/ha
  % Injury Corn: 0%
[2]; antidote 8.96 kg/ha alone, no herbicide
  % Injury Corn: 0%
[3]; Herbicide No.1 0.14 kg/ha + Herbicide No.5 4.48 kg/ha, antidote rate 2.24 kg/ha
  % Injury Corn: 0%
[3]; Herbicide No.1 0.14 kg/ha + Herbicide No.5 4.48 kg/ha, antidote rate 8.96 kg/ha
  % Injury Corn: 0%
[3]; Herbicide No.1 0.56 kg/ha + Herbicide No.5 4.48 kg/ha, antidote rate 2.24 kg/ha
  % Injury Corn: 10%
[3]; Herbicide No.1 0.56 kg/ha + Herbicide No.5 4.48 kg/ha, antidote rate 8.96 kg/ha
  % Injury Corn: 10%
[4]; Herbicide No.1 4.48 + No.7 0.56 kg/ha + antidote 0.56 kg/ha
  % Injury Corn: 23%
[4]; Herbicide No.1 4.48 + No.7 0.56 kg/ha + antidote 2.24 kg/ha
  % Injury Corn: 40%
[4]; Herbicide No.1 4.48 + No.7 2.24 kg/ha + antidote 0.56 kg/ha
  % Injury Corn: 30%
[4]; Herbicide No.1 4.48 + No.7 2.24 kg/ha + antidote 2.24 kg/ha
  % Injury Corn: 23%
[4]; Herbicide No.1 6.72 + No.7 0.56 kg/ha + antidote 0.56 kg/ha
  % Injury Corn: 25%
[4]; Herbicide No.1 6.72 + No.7 0.56 kg/ha + antidote 2.24 kg/ha
  % Injury Corn: 25%
[4]; Herbicide No.1 6.72 + No.7 2.24 kg/ha + antidote 0.56 kg/ha
  % Injury Corn: 45%
[4]; Herbicide No.1 6.72 + No.7 2.24 kg/ha + antidote 2.24 kg/ha
  % Injury Corn: 50%
[5]; [13]
  % Injury BYG: 100%
[5]; [14]
  % Injury BYG: 100%
[5]; [15]
  % Injury BYG: 99%
[5]; [16]
  % Injury BYG: 100%
[6]; [13]
  % Injury VL: 60%
[6]; [14]
  % Injury VL: 90%
[6]; [15]
  % Injury VL: 85%
[6]; [16]
  % Injury VL: 75%
[7]; [11]
  % Injury BYG: 95%
[7]; [12]
  % Injury BYG: 90%
[7]; [17]
  % Injury BYG: 90%
[7]; [18]
  % Injury BYG: 90%
[8]; [11]
  % Injury VL: 95%
[8]; [12]
  % Injury VL: 95%
[8]; [17]
  % Injury VL: 95%
[8]; [18]
  % Injury VL: 95%
[9]; Herbicide No.1 0.56 kg/ha + Herbicide No.6 4.48 kg/ha, antidote rate 0.56 kg/ha
  % Injury Corn: 5%
[9]; Herbicide No.1 0.56 kg/ha + Herbicide No.6 4.48 kg/ha, antidote rate 2.24 kg/ha
  % Injury Corn: 15%
[9]; Herbicide No.6 4.48 kg/ha, no Herbicide No.1, antidote rate 0.56 kg/ha
  % Injury Corn: 5%
[9]; Herbicide No.6 4.48 kg/ha, no Herbicide No.1, antidote rate 2.24 kg/ha
  % Injury Corn: 15%
[10]; Herbicide No.1 0.56 kg/ha + Herbicide No.10 6.72 kg/ha, antidote rate 2.24 kg/ha
  % Injury Corn: 20%
[10]; Herbicide No.1 0.56 kg/ha + Herbicide No.10 6.72 kg/ha, antidote rate 8.96 kg/ha
  % Injury Corn: 10%
[10]; Herbicide No.1 1.12 kg/ha + Herbicide No.10 6.72 kg/ha, antidote rate 2.24 kg/ha
  % Injury Corn: 15%
[10]; Herbicide No.1 1.12 kg/ha + Herbicide No.10 6.72 kg/ha, antidote rate 8.96 kg/ha
  % Injury Corn: 15%
